Measured values published in patent US4435404A, “Carbostyril derivatives” (priority 1980, dated 1984).
Blank lines part the entries; values can stand above or below the compound they belong to.

Columns and labels:
bastard dog = assay: Increasing effect of cerebral blood flow; assay type: in vivo; settings: profunda femoris vein
Experimental: Thus, a bastard dog (male, 12-20 kg of body weight) was fixed in a prone (position) and was anesthetized with 20 mg/kg of pentobarbital sodium and made forced breathing to kept the frequency of respiration at 20 times/minutes. Then, the skull was bared and the surface bone was removed to expose the venous sinus by using grinder and the venous blood was took out from the venas which was cannulizated. The amount of venous blood flow was measured by using an electromagnetic blood flow meter and next measured by using drop-counter by measuring the number of drops of blood per 10 seconds.
The increasing effect of cerebral blood flow was calculated by comparing the number of blood drops in 30 seconds at the peak of increasement shown before and after the administration of compound to be tested. The each of compounds to be tested was dissolved in dimethylformamide and diluted with physiological saline solution and administered through a cannule being inserted into the profunda femoris vein.

[1] = biological target: T1, cyclic AMP phosphodiesterase (Oryctolagus cuniculus, UniProt G1ST54); assay: Obstructive action against cyclic AMP phosphodiesterase; assay type: biochemical; settings: rabbit platelet enzyme, 30° C., 20 minutes
T1 construct: the supernatant was collected to use it as a crude enzyme solution; from tissue; host or cells: rabbit platelets (from platelet-rich plasma)
T1 sequence (G1ST54 1-1128): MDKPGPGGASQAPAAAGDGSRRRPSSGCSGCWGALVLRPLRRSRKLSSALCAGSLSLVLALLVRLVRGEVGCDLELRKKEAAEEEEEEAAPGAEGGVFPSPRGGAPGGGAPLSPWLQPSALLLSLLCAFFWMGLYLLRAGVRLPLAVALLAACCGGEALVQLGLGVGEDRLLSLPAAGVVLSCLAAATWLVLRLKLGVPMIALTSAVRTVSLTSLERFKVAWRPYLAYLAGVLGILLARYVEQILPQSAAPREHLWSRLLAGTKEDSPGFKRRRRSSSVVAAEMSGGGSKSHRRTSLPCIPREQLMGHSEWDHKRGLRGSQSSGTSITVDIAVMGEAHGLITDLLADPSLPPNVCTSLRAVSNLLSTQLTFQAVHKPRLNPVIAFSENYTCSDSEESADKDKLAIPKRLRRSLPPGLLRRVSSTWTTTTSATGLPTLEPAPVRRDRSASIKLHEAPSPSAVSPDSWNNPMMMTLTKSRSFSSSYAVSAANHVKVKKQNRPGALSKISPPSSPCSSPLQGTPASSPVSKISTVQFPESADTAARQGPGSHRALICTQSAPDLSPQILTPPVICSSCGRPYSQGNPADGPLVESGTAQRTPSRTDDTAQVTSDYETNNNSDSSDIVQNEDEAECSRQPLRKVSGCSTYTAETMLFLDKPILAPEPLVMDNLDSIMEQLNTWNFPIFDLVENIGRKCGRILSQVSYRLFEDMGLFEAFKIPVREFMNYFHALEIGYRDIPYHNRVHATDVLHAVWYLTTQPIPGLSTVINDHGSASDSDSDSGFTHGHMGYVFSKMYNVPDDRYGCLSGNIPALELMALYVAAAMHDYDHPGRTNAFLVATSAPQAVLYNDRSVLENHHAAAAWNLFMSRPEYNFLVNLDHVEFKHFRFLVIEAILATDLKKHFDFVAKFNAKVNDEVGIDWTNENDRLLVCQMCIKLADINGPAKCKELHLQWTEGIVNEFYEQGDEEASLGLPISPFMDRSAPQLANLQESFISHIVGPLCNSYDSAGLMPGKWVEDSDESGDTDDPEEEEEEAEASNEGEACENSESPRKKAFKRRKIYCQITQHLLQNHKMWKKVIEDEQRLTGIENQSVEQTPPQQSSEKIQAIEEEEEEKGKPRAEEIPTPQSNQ
Experimental: That is, for determining the obstructive activity against cyclic AMP phosphodiesterase, 10 ml of a solution obtained by adding 1 mmol of MgCl2 into 50 mmol of tris-hydrochloric acid buffer with pH 7.4 was added to the platelets obtained by further centrifuging the above-said rabbit PRP at 3,000 r.p.m. for 10 minutes, and the suspended platelets were ground by a Teflon potter type homogenizer. This was followed by two times of freezing and thawing treatment and 300-second fracturing with 200 watt supersonic waves. After additional 60-minute centrifugation with 100,000 G, the supernatant was collected to use it as a crude enzyme solution.
10 Milliliters of this crude buffer solution was added to a 1.5×20 cm DEAE-cellulose column which has previously been buffered with 50 mM of tris-acetate buffer (pH 6.0), followed by washing and elution with 30 ml of 50 mM tris-acetate buffer, and this buffer solution was subjected to linear gradient elution with 0 to 0.5 moles of sodium acetate-tris-acetatebuffer (total amount of elute was 300 ml.). The flow rate was 0.5 ml/min, and 5 ml of each fraction was batched out. […] This fraction was used as cyclic AMP phosphodiesterase.
0.1 Milliliter of an aqueous solution of each test compound of a specified concentration was mixed with 40 mmol of tris-hydrochloric acid buffer (pH 8.0, containing 50 μg of cow serum albumin and 4 mmol of MgCl2) containing predetermined 1.0 μmol of cyclic AMP (tritium cyclic AMP), and 0.2 ml of this mixed solution was used as substrate solution.
0.2 Milliliter of the above-prepared cyclic AMP phosphodiesterase of a predetermined concentration was added to said substrate solution and the mixture was reacted at 30° C. for 20 minutes, producing tritium 5'-AMP from the tritium cyclic AMP.
The reaction system was then immersed in boiling water for 2 minutes to stop the reaction, and then this reaction solution was cooled in ice water and, for converting the produced tritium 5'-AMP into tritium adenosine, the solution was added with 0.05 ml (1 mg/ml) of snake poison as 5'-nucleotidase and reacted at 30° C. for 10 minutes. The whole amount of this reaction solution was then added to a cation exchange resin (AG 500 W×4, 200-400 meshes, manufactured by Bio-Rad Co., column size: 0.5×1.5 cm), and the produced tritium anodesine alone was allowed to combine, washed with 6 ml of distilled water and eluted with 1.5 ml of 3 N-ammonia water. The whole quantity of the elutant was added with 10 ml of a triton-toluene type scintillator and the produced tritium adenosine was measured by a liquid scintillation counter to determine the phosphodiesterase activity.
In this way, the phosphodiesterase activation value (Vs) of the test compounds of the respective concentrations was determined, and the phosphodiesterase obstruction rate (%) was determined from said activation value (Vs) and control value (Vc) (obtained from water not containing any test compound) from the following formula: [formula] Known 1-methyl-3-isobutylxanthine was used as control.

[2] = test system: collagen-induced aggregation in rabbit platelet; assay: Inhibition effect on collagen-induced aggregation in rabbit platelet; assay type: cell-based; settings: Oryctolagus cuniculus, Platelet, read-out: Inhibition effect on collagen-induced aggregation; for inhibition at 10 µM: concentration of the test compound solution 10^-5 mole; for inhibition at 1 µM: concentration of the test compound solution 10^-6 mole
Experimental: (§1) The platelet aggregation inhibitory effect is measured by using AG-II aggregometer (manufactured by Bryston Manufacturing Co.). The blood sample used for the test is a 1/9 (by volume) mixture of sodium citrate and whole blood collected from rabbit. Said sample is subjected to 10-minute centrifugal separation at 1,000 r.p.m. to obtain a platelet rich plasma (PRP). The thus obtained PRP is separated, and the remaining blood sample is further subjected to 15-minute centrifugal separation at 3,000 r.p.m. to obtain a platelet poor plasma (PPP).
(§2) The number of platelets in the PRP is counted by the Brecher-Clonkite Method, and the PRP is diluted with the PPP to prepare a PRP sample with platelet concentration of 300,000/mm^3 for the adenosine diphosphate (ADP)-induced aggregation test. There is also prepared a PRP sample with platelet concentration of 450,000/mm^3 for the collagen-induced aggregation test.
(§3) 0.6 Milliliter of said PRP sample is added into 0.01 ml of a solution of a test compound of a predetermined concentration and the mixture is placed in a 37° C. thermostat for one minute. Then 0.07 ml of an ADP or collagen solution is added to the mixture. Transmittance of this mixture is determined and the change of transmittance is recorded by using the aggregometer at stirrer speed of 1,100 r.p.m. […] The ADP solution is adjusted to a concentration of 7.5×10^-5 M, and the collagen solution is prepared by triturating 100 mg of collagen with 5 ml of said buffer and the supernatant is used as collagen inducer. Acetylsalicylic acid is used as control for the ADP-induced aggregation test and the collagen-induced aggregation test, respectively. The platelet aggregation inhibitory effect is measured in terms of percent inhibition with respect to the aggregation rate of the controls. The aggregation rate is calculated from the following formula:
(§4) Aggregation rate=[(c-a)/(b-a)]×100
(§5) b: transmittance of PRP containing a test compound and an aggregation inducer

[3] = test system: ADP-induced aggregation in rabbit platelet; assay: Inhibition effect on ADP-induced aggregation in rabbit platelet; assay type: cell-based; settings: Oryctolagus cuniculus, Platelet; for inhibition at 100 µM: concentration of the test compound solution 10^-4 mole; for inhibition at 10 µM: concentration of the test compound solution 10^-5 mole; for inhibition at 1 µM: concentration of the test compound solution 10^-6 mole
Experimental: as §1, §2, §3, §4, §5

Acute Toxicity Test = settings: mouse, in vivo; male mice, oral administration
Experimental: The test compounds were administered orally to the mice and LD50 (mg/kg) of the compounds was determined.

[4] = read-out: Inhibition effect on ADP-induced aggregation

Compound: 6-{3-[N-(2-Hydroxyethyl)-N-cyclooctylaminocarbonyl]propoxy}-3,4-dihydrocarbostyril [Example 5]
Increasing effect of cerebral blood flow (bastard dog; dosage 100 μg/kg): 43.5%

Compound: 6-{3-[N-(4-Hydroxybutyl)-N-cyclohexylaminocarbonyl]propoxy}carbostyril [Example 7]
Increasing effect of cerebral blood flow (bastard dog; dosage 300 μg/kg): 80.2%

Compound: 6-{4-[N-(2,3-Dihydroxypropyl)-N-cyclohexylaminocarbonyl]butoxy}carbostyril [Example 14]
Increasing effect of cerebral blood flow (bastard dog; dosage 100 μg/kg): 51.6%

Compound: 6-{4-[N-(2-Hydroxybutyl)-N-cyclohexylaminocarbonyl]butoxy}carbostyril [Example 13]
Increasing effect of cerebral blood flow (bastard dog; dosage 30 μg/kg): 98.9%

Compound: 6-{4-[N-(2-Hydroxybutyl)-N-cyclopentylaminocarbonyl]butoxy}-3,4-dihydrocarbostyril [Example 12]
Increasing effect of cerebral blood flow (bastard dog; dosage 300 μg/kg): 73.5%

Compound: CC(C)Cn1c(=O)n(C)c(=O)c2[nH]cnc21 [1-Methyl-3-isobutylxanthine, 1-methyl-3-isobutylxanthine, reference compound]
IC50 [1]: 0.54 µM

Compound: CCN(C(=O)CCCOc1ccc2[nH]c(=O)ccc2c1)c1ccccn1 [No. 3, 6-{3-[N-Ethyl-N-(2-pyridyl)aminocarbonyl]propoxy}carbostyril]
IC50 [1]: 0.4 µM | inhibition at 10 µM [2]: 100% | inhibition at 1 µM [2]: 14% | inhibition at 100 µM [3]: 100% | inhibition at 10 µM [3, 4]: 31% | inhibition at 1 µM [3, 4]: 10% | LD50 (Acute Toxicity Test): > 1000 mg/kg

Compound: CN(Cc1ccco1)C(=O)CCCOc1ccc2[nH]c(=O)ccc2c1 [No. 4, 6-{3-[N-Methyl-N-(2-furylmethyl)aminocarbonyl]propoxy}carbostyril]
IC50 [1]: 0.6 µM | inhibition at 100 µM ([2]; concentration of the test compound solution 10^-4 mole): 92.5% | inhibition at 10 µM [2]: 35.8% | inhibition at 1 µM [2]: 4% | inhibition at 100 µM [3]: 85.7% | inhibition at 10 µM [3, 4]: 13.7% | LD50 (Acute Toxicity Test): > 1000 mg/kg

Compound: O=C(OCCN(C(=O)CCCOc1ccc2[nH]c(=O)ccc2c1)C1CCCCC1)c1ccccc1 [No. 10, 6-{3-[N-(2-Benzoyloxyethyl)-N-cyclohexylaminocarbonyl]propoxy}carbostyril]
IC50 [1]: 0.012 µM | inhibition at 10 µM [2]: 100% | inhibition at 1 µM [2]: 100% | inhibition at 0.1 µM ([2]; concentration of the test compound solution 10^-7 mole): 56.7% | inhibition at 100 µM [3]: 100% | inhibition at 10 µM [3, 4]: 80.7% | inhibition at 1 µM [3, 4]: 42.6% | inhibition at 0.1 µM ([3]; concentration of the test compound solution 10^-7 mole, read-out: Inhibition effect on ADP-induced aggregation): 7.1% | LD50 (Acute Toxicity Test): > 1000 mg/kg

Compound: CCCCN(CC1CCCCO1)C(=O)CCCCOc1ccc2c(c1)CCC(=O)N2 (stereo not drawn) [No. 12, 6-{4-[N-Butyl-N-(2-tetrahydropyranylmethyl)aminocarbonyl]butoxy}-3,4-dihydrocarbostyril]
IC50 [1]: 0.025 µM | inhibition at 10 µM [2]: 100% | inhibition at 1 µM [2]: 10.3% | inhibition at 100 µM [3]: 100% | inhibition at 10 µM [3, 4]: 40.2% | inhibition at 1 µM [3, 4]: 8.3% | LD50 (Acute Toxicity Test): > 1000 mg/kg

Compound: O=C1CCc2cc(OCCCC(=O)N3CCN(Cc4ccccc4)CC3)ccc2N1 [No. 15, 6-[3-(4-Benzyl-1-piperazinylcarbonyl)propoxy]-3,4-dihydrocarbostyril]
IC50 [1]: 0.04 µM | inhibition at 10 µM [2]: 98.8% | inhibition at 1 µM [2]: 24.6% | inhibition at 100 µM [3]: 100% | inhibition at 10 µM [3, 4]: 100% | inhibition at 1 µM [3, 4]: 25.8% | LD50 (Acute Toxicity Test): > 1000 mg/kg

IC50 [1]: 0.0066 µM
Compound: CC(=O)OC1CCC(N(C)C(=O)CCCOc2ccc3[nH]c(=O)ccc3c2)CC1 (stereo not drawn) [No. 26, 6-{3-[N--Methyl-N--(4-acetyloxycyclohexyl)aminocarbonyl]propoxy}carbostyril, reference compound]

Compound: COc1ccc(Cc2nccc3cc(OC)c(OC)cc23)cc1OC [Papaverin, papaverine, reference compound]
Increasing effect of cerebral blood flow (bastard dog; dosage 1,000 μg/kg): 86.0%
